A word on the IC50: it is the concentration needed to halve the response being measured. As usually defined, the inhibition is the relative decrease from the control value, in per cent. A higher inhibition goes with a response far below the control.

What all share (format): biochemical
In one assay the target is T1, MMP-9 (Homo sapiens, UniProt P14780).
T1 construct: from tissue; host or cells: human polymorphonuclear leukocytes (PMN) from whole blood (New York Blood Center), PMA-stimulated supernatant
T1 sequence (P14780 107-707 limits assumed): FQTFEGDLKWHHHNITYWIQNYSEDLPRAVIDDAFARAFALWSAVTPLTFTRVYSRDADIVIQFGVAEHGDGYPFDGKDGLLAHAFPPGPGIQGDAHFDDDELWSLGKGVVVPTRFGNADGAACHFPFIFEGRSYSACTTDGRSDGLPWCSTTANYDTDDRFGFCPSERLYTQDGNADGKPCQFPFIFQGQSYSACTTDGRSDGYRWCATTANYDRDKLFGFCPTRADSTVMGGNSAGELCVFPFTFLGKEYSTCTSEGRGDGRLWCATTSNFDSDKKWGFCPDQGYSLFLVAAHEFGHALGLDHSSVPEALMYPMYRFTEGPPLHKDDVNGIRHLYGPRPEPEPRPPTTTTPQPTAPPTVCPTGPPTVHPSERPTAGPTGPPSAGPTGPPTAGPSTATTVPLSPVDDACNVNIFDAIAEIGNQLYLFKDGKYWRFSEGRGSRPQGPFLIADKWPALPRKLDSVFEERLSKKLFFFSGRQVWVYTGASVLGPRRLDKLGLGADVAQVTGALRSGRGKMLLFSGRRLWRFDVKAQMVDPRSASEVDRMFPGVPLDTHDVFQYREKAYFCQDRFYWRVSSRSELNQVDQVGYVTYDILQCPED
Description: Automated MMP Profiling Assay, MMP-9 fluorogenic. Particulars: for IC50: 96-well automated, P218. The method, then: Briefly, polymorphonuclear leukocytes (PMN) preparations were isolated as described above from 3 or more units of freshly drawn whole blood obtained from the New York Blood Center (New York, N.Y.). Cells were resuspended in phosphate buffered saline (PBS) containing 100 ng/ml phorbol myristate acetate (PMA) in the presence of 50 mM diisopropylfluorophospate (DFP), 1 μg/ml leupeptin and aprotinin, and 1 mg/ml catalase for 1 hr at 37° C. Supernatants were collected by centrifugation (300×g) and the samples were frozen at -70° C. All chromatographic methods were performed at 4° C. Thawed samples were concentrated 5-fold using an Amicon chamber equipped with a YM-10 membrane. The concentrate was pressure dialyzed against 0.02M Tris-HCl, 0.1M NaCl, 1 mM CaCl2, 1 μM ZnCl2, 0.001% Brij-35, 0.02% sodium azide (NaN3), pH 7.5 and applied to DEAE ion exchange chromatography resin which was previously equilibrated with the same buffer at a flow rate of 0.4 ml/min. The column was extensively washed with the same buffer and gelatinase was eluted as 4 ml fractions from the column with 0.02M Tris-HCl, 0.5M NaCl, 1 mM CaCl2, 1 μM ZnCl2, 0.001% Brij-35, 0.02% NaN3, pH 7.5. Gelatinase containing fractions were observed by gelatin zymography (see below), loaded onto a gelatin agarose affinity resin and washed with the same buffer. Gelatinase activity was eluted at a flow rate of 1 ml/min from the column as 1 ml fractions with 0.02M Tris-HCl, 1M NaCl, 1 mM CaCl2, 1 μM ZnCl2, 0.001% Brij-35, 0.02% NaN3, pH 7.5 containing 10% dimethyl sulfoxide (DMSO). The fractions containing gelatinase activity were pooled and dialyzed against 0.005M Tris-HCl, 5 mM NaCl, 0.5 mM CaCl2, 0.1 μM ZnCl2, 0.001% Brij-35, pH 7.4. The protein content associated with material was determined with a micro-BCA assay (Pierce, Rockford, Ill.), lyophilized and reconstituted to a desired working concentration (100 μg/ml).
This assay was run with a protocol analogous to that reported for MMP-3 inhibition using the synthetic peptide P218 and each of the three enzymes and measuring quenched fluorescence. This assay with each invention compound was run with the three enzymes MMP-3, MMP-9 and MMP-2 in parallel as adapted for a 96-well microtitre plate using a Hamilton A® workstation.

Another assay concerns the target T2, MMP-2 (Homo sapiens, UniProt P08253).
T2 sequence (P08253 110-660): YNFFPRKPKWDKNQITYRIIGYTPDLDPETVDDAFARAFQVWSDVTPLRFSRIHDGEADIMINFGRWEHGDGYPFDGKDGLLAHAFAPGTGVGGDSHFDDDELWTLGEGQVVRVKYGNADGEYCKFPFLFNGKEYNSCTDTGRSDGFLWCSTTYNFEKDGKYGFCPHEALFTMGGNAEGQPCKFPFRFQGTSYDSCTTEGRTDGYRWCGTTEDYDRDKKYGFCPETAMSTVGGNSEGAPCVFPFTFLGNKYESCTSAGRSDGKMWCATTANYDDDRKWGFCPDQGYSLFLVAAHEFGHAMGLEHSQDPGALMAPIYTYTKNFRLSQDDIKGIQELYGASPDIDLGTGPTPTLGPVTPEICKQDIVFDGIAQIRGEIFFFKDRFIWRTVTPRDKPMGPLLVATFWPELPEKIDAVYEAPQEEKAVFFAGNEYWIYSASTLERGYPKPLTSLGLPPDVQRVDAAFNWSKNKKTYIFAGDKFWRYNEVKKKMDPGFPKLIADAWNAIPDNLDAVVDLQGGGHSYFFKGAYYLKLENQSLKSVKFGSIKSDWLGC
Briefly: Automated MMP Profiling Assay, MMP-2 fluorogenic. The note with it: for IC50: 96-well automated, P218, read-out: MMP-2 Fluorogenic IC50 (profiling).

In the next assay the target is T3, MMP-3 (Homo sapiens, UniProt P08254).
T3 construct: Truncated Prostromelysin-257 was expressed in a soluble form in E.coli; made in house; host or cells: E. coli
T3 sequence (P08254 100-274 limits assumed): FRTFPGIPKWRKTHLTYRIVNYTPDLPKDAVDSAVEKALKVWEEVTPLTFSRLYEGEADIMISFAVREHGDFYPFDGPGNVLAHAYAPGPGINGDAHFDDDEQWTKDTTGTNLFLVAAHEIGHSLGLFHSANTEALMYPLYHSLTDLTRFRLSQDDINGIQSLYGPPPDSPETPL
Description: Automated MMP Profiling Assay, MMP-3 fluorogenic. Particulars: for IC50: 96-well automated, P218. An excerpt: This assay with each invention compound was run with the three enzymes MMP-3, MMP-9 and MMP-2 in parallel as adapted for a 96-well microtitre plate using a Hamilton A® workstation.

Molecules are shown by their SMILES.

Take `CCCCCOc1ccc(-c2ccc(C(=O)CC(CCc3ccccc3)C(=O)O)cc2)cc1` (stereo not drawn) [Example 158, [1,1'-Biphenyl]-4-butanoic acid, γ-oxo-4'-(pentyloxy)-α-(2-phenylethyl)-]: the IC50 against MMP-9 is greater than 500 nM; on MMP-2 it was 32 nM; against MMP-3 it was 37 nM.

In the case of `NC(=O)c1ccc(COc2ccc(-c3ccc(C(=O)CC(CCCc4ccccc4)C(=O)O)cc3)cc2)cc1` (stereo not drawn) [Example 112, [1,1'-Biphenyl]-4-butanoic acid, 4'-[[4-(aminocarbonyl)phenyl]methoxy]-γ-oxo-α-(3-phenylpropyl)-], the concentration for half-maximal inhibition (IC50) against MMP-9 was found to be 884 nM; on MMP-2 it was 11 nM; at MMP-3, 30 nM.

On to `O=C(CC(CCNC(=O)c1ccccc1C(=O)O)C(=O)O)c1ccc(-c2ccc(Cl)cc2)cc1` (stereo not drawn) [Example 279, [1,1'-Biphenyl]-4-butanoic acid, α-[2-[(2-carboxybenzoyl)amino]ethyl]-4'-chloro-γ-oxo-], for which the IC50 amounted to 286 nM on MMP-9, 67 nM at MMP-2 and 402 nM against MMP-3.

Regarding `CCN(CC)C(=O)c1cccc(CCC(CC(=O)c2ccc(-c3ccc(OCc4ccccc4)cc3)cc2)C(=O)O)c1` (stereo not drawn) [Example 165, [1,1'-Biphenyl]-4-butanoic acid, α-[2-[3-[(diethylamino)carbonyl]phenyl]ethyl]-γ-oxo-4'-(phenylmethoxy)-], the IC50 on MMP-9 came out at 55 nM; on MMP-2 it was 3 nM; at MMP-3 it was 13 nM.

Turning to `CCCCCCOc1ccc(-c2ccc(C(=O)CC(CCc3ccccc3)C(=O)O)cc2)cc1` (stereo not drawn) [Example 159, [1,1'-Biphenyl]-4-butanoic acid, 4'-(hexyloxy)-γ-oxo-α-(2-phenylethyl)-], the IC50 against MMP-9 is greater than 1250 nM; on MMP-2, 42 nM; on MMP-3, 116 nM.

On to `COCOC[C@@H]1CC[C@H](C(=O)c2ccc(-c3ccc(Cl)cc3)cc2)[C@H]1C(=O)O` (relative stereo) [Example 364], for which the values for the IC50 on MMP-9, on MMP-2 and at MMP-3 were 180 nM, 40 nM and 46 nM, respectively.

Take `COc1ccc(CSCCC(CC(=O)c2ccc(-c3ccc(Cl)cc3)cc2)C(=O)O)cc1` (stereo not drawn) [Example 427, [1,1'-Biphenyl]-4-butanoic acid, 4'-chloro-α-[2-[[(4-methoxyphenyl)methyl]thio]ethyl]-γ-oxo-]: the IC50 was found to be 362 nM against MMP-9, 42 nM at MMP-2 and 189 nM on MMP-3.

On to `CCCCCOc1ccc(-c2ccc(C(=O)CC(CCCc3ccccc3)C(=O)O)cc2)cn1` (stereo not drawn) [Example 71, Benzenepentanoic acid, α-[2-oxo-2-[4-[6-(pentyloxy)-3-pyridinyl]phenyl]ethyl]-], for which, at MMP-9, the inhibition at 5 µM was 24%. Further, the IC50 at MMP-2 was determined as 969 nM; on MMP-3, 1160 nM.

In the case of `CCCCCOc1ccc(-c2ccc(C(=O)CC(CCN3C(=O)c4ccccc4C3=O)C(=O)O)cc2)cc1` (stereo not drawn) [Example 272], the IC50 was determined as 10.8 nM at MMP-9, 2.28 nM on MMP-2 and 9.2 nM against MMP-3.

As for `O=C(CC(CCN1C(=O)c2ccc(OCc3ccccc3)cc2C1=O)C(=O)O)c1ccc(-c2ccc(Cl)cc2)cc1` (stereo not drawn) [Example 405, 2H-Isoindole-2-butanoic acid, α-[2-(4'-chloro[1,1'-biphenyl]-4-yl)-2-oxoethyl]-1,3-dihydro-1,3-dioxo-5-(phenylmethoxy)-], the IC50 against MMP-9 stood at 5.8 nM; on MMP-2, 80 nM; against MMP-3 it was 75 nM.

As for `O=C(O)[C@H]1[C@H](CN2C(=O)c3cc(Cl)c(Cl)cc3C2=O)CC[C@@H]1C(=O)c1ccc(-c2ccc(Cl)cc2)cc1` (relative stereo) [Example 391, Cyclopentanecarboxylic acid, 2-[(4'-chloro[1,1'-biphenyl]-4-yl)carbonyl]-5-[(5,6-dichloro-1,3-dihydro-1,3-dioxo-2H-isoindol-2-yl)methyl]-, (1α,2β,5β)-], the results for the 50% inhibitory concentration (IC50) at MMP-9, on MMP-2 and against MMP-3 were 4.2 nM, 14 nM and 19 nM, respectively.

Turning to `CC(C)COC(=O)N1CC[C@H](C(=O)c2ccc(-c3ccc(Cl)cc3)cc2)[C@H]1C(=O)O` [Example 172, 1,2-PYrrolidinecarboxylic acid, 3-[(4'-chloro[1,1'-biphenyl]-4-yl)carbonyl]-, 1-(2-methylpropyl) ester, (2S-trans)-], the IC50 was 1930 nM against MMP-9, 175 nM on MMP-2 and 456 nM on MMP-3.

For `CCCCCCCCCCOc1ccc(-c2ccc(C(=O)CC(CCCc3ccccc3)C(=O)O)cc2)cc1` (stereo not drawn) [Example 108, [1,1'-Biphenyl]-4-butanoic acid, 4'-(decyloxy)γ-oxo-α-(3-phenylpropyl)-], the inhibition at 5 µM at MMP-9 was found to be 4%; against MMP-2 (at 5 μM), 16%; against MMP-3, 8%.

With `CCCCCCOc1ccc(-c2ccc(C(=O)C3CCC=C3C(=O)O)cc2)cc1` (stereo not drawn) [Example 443, 1-Cyclopentene-1-carboxylic acid, 5-[[4'-(hexyloxy)[1,1'-biphenyl]-4-yl]carbonyl]-], the inhibition at 5 µM worked out at 16% at MMP-9 and 20% against MMP-3. Also, the IC50 at MMP-2 came out at 4610 nM.

With `O=C(c1ccc(-c2ccc(Cl)cc2)cc1)[C@H]1CCN(C(=O)NCc2ccccc2)[C@@H]1C(=O)O` [Example 168, L-Proline, 3-[(4'-chloro[1,1'-biphenyl]-4-yl)carbonyl]-1-[[(phenylmethyl)amino]carbonyl]-, trans-], the IC50 at MMP-9 came out at 163 nM; on MMP-2, 15 nM; against MMP-3 it was 49 nM.

For `O=C(CC(CCN1C(=O)CCC1=O)C(=O)O)c1ccc(-c2ccc(Cl)cc2)cc1` (stereo not drawn) [Example 411, 1-Pyrrolidinebutanoic acid, α-[2-(4'-chloro[1,1'-biphenyl]-4-yl)-2-oxoethyl]-2,5-dioxo-], the IC50 on MMP-9 was 213 nM; on MMP-2 it was 27 nM; at MMP-3 it was 116 nM.

Consider `CCN(CC)C(=O)c1ccc(CCC(CC(=O)c2ccc(-c3ccc(Cl)cc3)cc2)C(=O)O)cc1` (stereo not drawn) [Example 151, [1,1'-Biphenyl]-4-butanoic acid, 4'-chloro-α-[2-[4-[(diethylamino)carbonyl]phenyl]ethyl]-γ-oxo-], for which the results for the IC50 against MMP-9, on MMP-2 and on MMP-3 were 607 nM, 70 nM and 371 nM, respectively.

`COc1cccc2c1C(=O)N(CCC(CC(=O)c1ccc(-c3ccc(Cl)cc3)cc1)C(=O)O)C2=O` (stereo not drawn) [Example 423, 2H-Isoindole-2-butanoic acid, α-[2-(4'chloro[1,1'-biphenyl]-4-yl)-2-oxoethyl]-1,3-dihydro-4-methoxy-1,3-dioxo-]: the concentration for half-maximal inhibition (IC50) on MMP-9 was 6.1 nM; at MMP-2, 15 nM; at MMP-3, 19 nM.

Regarding `COC/C=C/c1ccc(-c2ccc(C(=O)CC(CCCc3ccccc3)C(=O)O)cc2)cc1` (stereo not drawn) [Example 353, [1,1'-Biphenyl]-4-butanoic acid, 4'-(3-methoxy-1-propenyl)-γ-oxo-α-(3-phenylpropyl)-, (E)-], the IC50 at MMP-9 came out at 274 nM; on MMP-2, 20 nM; against MMP-3 it was 84 nM.

In the case of `CCCCCOc1ccc(-c2ccc(C(=O)[C@@H]3CC[C@H](Cc4ccccc4)[C@H]3C(=O)O)cc2)cc1` [Example 325, Cyclopentanecarboxylic acid, 2-[[4'-(pentyloxy)[1,1'-biphenyl]-4-yl]carbonyl]-5-(phenylmethyl)-, [1R-(1α,2β,5β)]-], the values for the inhibition at 5 µM against MMP-9 and at MMP-3 were 0% and 10%, respectively. Moreover, the IC50 on MMP-2 was 4400 nM.

(Values after patent US5789434A, “Derivatives of substituted 4-biarylbutyric acid as matrix metalloprotease inhibitors” (priority 1995, dated 1998).)
